Reference: patent US20160263130A1, “PHARMACEUTICAL COMPOSITION FOR PREVENTING OR TREATING LIVER DISEASES, CONTAINING PLASMALOGEN PRECURSOR, PLASMALOGEN OR PLASMALOGEN ANALOG AS EFFECTIVE COMPONENT” (UNIVERSITY OF ULSAN FOUNDATION FOR INDUSTRY COOPERATION, priority 2013, published 2016)

Legend:
Assay type in all cases: in vivo, C57/BL6 male mice
[1] = tested on: mice treated with methionine-choline deficient diet (MCDD); test: Liver histological observation (H&E, trichrome C), MCD diet mice; conditions: FIG. 4
Experimental: (§1) A methionine-choline deficient (MCD) feed to induce steatohepatitis was purchased from Dyets (Bethlehem, Pa., USA). Alkoxy glycerol (batyl alcohol), as a plasmalogen precursor, was purchased from Sigma (St Louis, Mo., USA).
(§2) 2% BSA was prepared in a DMEM:F12 medium, and plasmalogen precursor alkoxy glycerol dissolved in ethanol was added thereto After incubation at 70° C. for 20 minutes, the mixture was inoculated in a manner of observing crystal disappearance. 7-week-old C57/BL6 male mice were brought in to an experimental animal room, stabilized for 7 days, and then separated into a general feed group, as a control group, an MCD diet group (an MCDD group), and a group taken a mixture of MCD diet and 100 mg/kg/day of plasmalogen precursor alkoxy glycerol (an AG group), where each of the groups had six mice. The test feeds were taken for the total of 6 weeks, and the mice were allowed to only take water for the following 12 hours. Then, blood samples were obtained from the mice, and liver tissues were harvested from each of the mice. The harvested liver tissues were instantly rapid-frozen in dry ice and stored with plasma in a freezer at −70° C. […]
The segment was died with hematoxylin-eosin (H&E) and trichrome C, and examined and analyzed by using an optical microscope.

[2] = tested on: mice that were allowed to take high fat diet (HFD); test: High fat diet (HFD) hepatic steatosis animal model; conditions: HFD mixed with 200 mg/kg/day (AG-200), 12 weeks, FIG. 6
Description: Although a MCDD animal model is a model that represents nonalcoholic steatohepatitis occurrence, the MCDD animal model cannot represent a risk factor that accompanies metabolic syndrome. In order to overcome such limitation, liver tissues of mice that were allowed to take high fat diet (HFD) as a general animal model with respect to hepatic steatosis were used for the comparison.
The animal model only had simple hepatic steatosis without inflammation unlike the MCDD group.
Alkoxy glycerol, as a plasmalogen precursor, was added to the HFD feed that induces obesity and non-alcoholic hepatic steatosis, and the feed was administrated to the animal model, and the change was confirmed.
First, the control group (CON) was prepared by allowing 7-week-old C57/BL6 male mice to take a general feed including 7% of fat, 18% of protein, and 75% of carbohydrate, and the HFD group was prepared by allowing 7-week-old C57/BL6 male mice to freely take a HFD feed including 60% of fat, 18% of protein, and 22% of carbohydrate.
Also, the AG group (AG-200) was allowed to take the HFD mixed with 200 mg/kg/day of alkoxy glycerol. The experimental groups were allowed to take the corresponding feeds for the total of 12 weeks, and liver histological changes in the livers were confirmed in the same manner in Example 4, and the plasma ALT levels were confirmed in the same manner as in Example 1.

[3] = tested on: mice treated with methionine-choline deficient diet (MCDD); test: Plasma ALT measurement in MCD diet steatohepatitis mice; conditions: MCD diet together with 100 mg/kg/day, 6 weeks, vs MCDD group, FIG. 1
Experimental: as §1
as §2, with “mice.” for “mice. The harvested liver tissues were instantly rapid-frozen in dry ice and stored with plasma in a freezer at −70° C.”
Blood samples were obtained from venae cavae of the experimental animals, the plasma was separated from the blood samples by using a centrifuge (at 300 rpm for 15 minutes), and alanine aminotransferase (ALT) of the plasma was measured by using a kit of Labs Biotechnology (London, Canada). […]

[4] = tested on: tumor necrosis factor (TNF-α) and monocyte chemotactic protein-1 (MCP-1) gene expression; test: Inflammatory cytokine gene expression in liver tissue by real-time PCR, MCD diet mice; conditions: MCD diet with 100 mg/kg/day, 6 weeks, FIG. 3
Experimental: as §1
2% BSA was prepared in a DMEM:F12 medium, and plasmalogen precursor alkoxy glycerol dissolved in ethanol was added thereto After incubation at 70° C. for 20 minutes, the mixture was inoculated in a manner of observing crystal disappearance. 7-week-old C57/BL6 male mice were brought in to an experimental animal room, stabilized for 7 days, and then separated into a general feed group, as a control group, an MCD diet group (an MCDD group), and a group taken a mixture of MCD diet and 100 mg/kg/day of plasmalogen precursor alkoxy glycerol (an AG group), where each of the groups had six mice. The test feeds were taken for the total of 6 weeks, and the mice were allowed to only take water for the following 12 hours. Then, blood samples were obtained from the mice, and liver tissues were harvested from each of the mice. The harvested liver tissues were instantly rapid-frozen in dry ice and stored with plasma in a freezer at −70° C.
In order to confirm change in an inflammation degree of liver tissues, gene expression of a tumor necrosis factor (TNF-α) and monocyte chemotactic protein-1 (MCP-1), which are typical inflammatory cytokines, were confirmed by real-time PCR.

[5] = tested on: mice treated with methionine-choline deficient diet (MCDD); test: Neutral fats (triglyceride) in liver tissue of MCD diet mice; conditions: MCD diet together with 100 mg/kg/day, 6 weeks, FIG. 2
Experimental: as §1
as §2, with “mice.” for “mice. The harvested liver tissues were instantly rapid-frozen in dry ice and stored with plasma in a freezer at −70° C.”
Neutral fats in the liver tissue was measured by using a triglyceride (GPO-Trinder) kit purchased from Sigma. […] Then, a triglyceride reagent A was added thereto, allowed to react at room temperature for 5 minutes, and the measurement was performed by using an Emax precision micro plate reader (Molecular Devices, Sunnyvale, Calif.) at 540 nm.

SMILES: CCCCCCCCCCCCCCCCCCOCC(O)CO (centres unmarked) [alkoxy glycerol, batyl alcohol]
- steatohepatitis, H&E and trichrome C histology ([1]; MCD diet with 100 mg/kg/day, 6 weeks): relieved to the similar level with that of the control group
- liver fibrosis ([1]; MCDD together with alkoxy glycerol): significant improvement
- hepatic steatosis occurrence (liver histology) [2]: significant improvement
- lipid content in the liver tissues [2]: significant improvement
- plasma ALT level [2]: remarkable reduction
- change in plasma ALT [3]: significantly improvement
- expression of inflammatory cytokine genes (TNF-α, MCP-1) in liver tissue [4]: suppressed expression of inflammatory cytokine genes
- change in amount of neutral fats of liver tissues [5]: significantly improvement
